Results published in US10077261B2, “Imidazolin-5-one derivative useful as FASN inhibitors for the treatment of cancer” (Janssen Pharmaceutica NV, priority 2012, dated 2018).

Key:
A2780 ovarian cells [1] = assay: A2780 ovarian cell proliferation assay in lipid reduced medium, with palmitate (MTT); type: cell-based; conditions: Homo sapiens, A2780, 96 h; read-out: pIC50 A2780 Ovarian Cell, With Palmitate (converted)
Experimental: (§1) The biological assays described below correspond to comparative assays for ovarian cell proliferation. […] Compounds active in the absence of palmitate would not be expected to be active in the control.
(§2) 2500 cells were seeded in a 96-well clear well plate in 200 μL RPMI1640 with 10% Fetal Calf Serum (Hyclone), and incubated at 37° C., 5% CO2. Blanks were wells without cells. The next day the culture medium was aspirated and replaced by 160 μL culture medium with 10% Lipid-Reduced Serum (LRS, Hyclone). 20 μL test compound (at concentrations of 30 μM, 10 μM, 3 μM, 1 μM, 0.30 μM, 0.10 μM, 0.03 μM and 0.01 μM)/DMSO dilution followed by 20 μL palmitate-BSA solution were added to a final concentrations of 0.2% DMSO, 25 μM palmitate (Sigma, P0500, 10 mM stock solution in ethanol) 0.2% fatty-acid-free BSA, 0.25% ethanol. After 96 h incubation, an MTT assay was performed. The absorbance was measured at 544 nm on a SPECTRAMAX brand microplate reader (Molecular Devices).
A best fit curve was fitted by a minimum sum of squares method, plotting Controlmin versus test compound concentration.
(§3) Representative compounds of the present invention were tested according to the procedure as described in Biological Example 3 above, with results as listed in Table 8, below.

A2780 ovarian cells [2] = assay: A2780 ovarian cell proliferation assay in lipid reduced medium, without palmitate (MTT); type: cell-based; conditions: Homo sapiens, A2780, 96 h; read-out: pIC50 A2780 Ovarian Cell, Without Palmitate (converted)
Experimental: as §1
as §2, with “ethanol-BSA” for “palmitate-BSA”, “DMSO,” for “DMSO, 25 μM palmitate (Sigma, P0500, 10 mM stock solution in ethanol)”, “incubation” for “incubation,”
where mLC and mHC were the means of the low control wells and high control wells on the plate, after manual exclusion of outliers. A plot of Controlmin versus test compound concentration was fitted to a 4-parameter logistic curve using a non-linear least squares regression method.
as §3

[3] = molecular target: T1, hFASN enzyme (full length) (Homo sapiens, UniProt P49327); assay: Fatty Acid Synthase (FASN) inhibition scintillation proximity assay; type: biochemical; conditions: for inhibition at 10 µM: read-out: Human FASN % inhibition @ 10 μM, 10 μM test compound; for IC50: read-out: Human FASN pIC50 (converted)
T1 construct: 10 μL hFASN enzyme (full length, 300 ng, purified in house); made in house
T1 sequence (P49327 whole entry): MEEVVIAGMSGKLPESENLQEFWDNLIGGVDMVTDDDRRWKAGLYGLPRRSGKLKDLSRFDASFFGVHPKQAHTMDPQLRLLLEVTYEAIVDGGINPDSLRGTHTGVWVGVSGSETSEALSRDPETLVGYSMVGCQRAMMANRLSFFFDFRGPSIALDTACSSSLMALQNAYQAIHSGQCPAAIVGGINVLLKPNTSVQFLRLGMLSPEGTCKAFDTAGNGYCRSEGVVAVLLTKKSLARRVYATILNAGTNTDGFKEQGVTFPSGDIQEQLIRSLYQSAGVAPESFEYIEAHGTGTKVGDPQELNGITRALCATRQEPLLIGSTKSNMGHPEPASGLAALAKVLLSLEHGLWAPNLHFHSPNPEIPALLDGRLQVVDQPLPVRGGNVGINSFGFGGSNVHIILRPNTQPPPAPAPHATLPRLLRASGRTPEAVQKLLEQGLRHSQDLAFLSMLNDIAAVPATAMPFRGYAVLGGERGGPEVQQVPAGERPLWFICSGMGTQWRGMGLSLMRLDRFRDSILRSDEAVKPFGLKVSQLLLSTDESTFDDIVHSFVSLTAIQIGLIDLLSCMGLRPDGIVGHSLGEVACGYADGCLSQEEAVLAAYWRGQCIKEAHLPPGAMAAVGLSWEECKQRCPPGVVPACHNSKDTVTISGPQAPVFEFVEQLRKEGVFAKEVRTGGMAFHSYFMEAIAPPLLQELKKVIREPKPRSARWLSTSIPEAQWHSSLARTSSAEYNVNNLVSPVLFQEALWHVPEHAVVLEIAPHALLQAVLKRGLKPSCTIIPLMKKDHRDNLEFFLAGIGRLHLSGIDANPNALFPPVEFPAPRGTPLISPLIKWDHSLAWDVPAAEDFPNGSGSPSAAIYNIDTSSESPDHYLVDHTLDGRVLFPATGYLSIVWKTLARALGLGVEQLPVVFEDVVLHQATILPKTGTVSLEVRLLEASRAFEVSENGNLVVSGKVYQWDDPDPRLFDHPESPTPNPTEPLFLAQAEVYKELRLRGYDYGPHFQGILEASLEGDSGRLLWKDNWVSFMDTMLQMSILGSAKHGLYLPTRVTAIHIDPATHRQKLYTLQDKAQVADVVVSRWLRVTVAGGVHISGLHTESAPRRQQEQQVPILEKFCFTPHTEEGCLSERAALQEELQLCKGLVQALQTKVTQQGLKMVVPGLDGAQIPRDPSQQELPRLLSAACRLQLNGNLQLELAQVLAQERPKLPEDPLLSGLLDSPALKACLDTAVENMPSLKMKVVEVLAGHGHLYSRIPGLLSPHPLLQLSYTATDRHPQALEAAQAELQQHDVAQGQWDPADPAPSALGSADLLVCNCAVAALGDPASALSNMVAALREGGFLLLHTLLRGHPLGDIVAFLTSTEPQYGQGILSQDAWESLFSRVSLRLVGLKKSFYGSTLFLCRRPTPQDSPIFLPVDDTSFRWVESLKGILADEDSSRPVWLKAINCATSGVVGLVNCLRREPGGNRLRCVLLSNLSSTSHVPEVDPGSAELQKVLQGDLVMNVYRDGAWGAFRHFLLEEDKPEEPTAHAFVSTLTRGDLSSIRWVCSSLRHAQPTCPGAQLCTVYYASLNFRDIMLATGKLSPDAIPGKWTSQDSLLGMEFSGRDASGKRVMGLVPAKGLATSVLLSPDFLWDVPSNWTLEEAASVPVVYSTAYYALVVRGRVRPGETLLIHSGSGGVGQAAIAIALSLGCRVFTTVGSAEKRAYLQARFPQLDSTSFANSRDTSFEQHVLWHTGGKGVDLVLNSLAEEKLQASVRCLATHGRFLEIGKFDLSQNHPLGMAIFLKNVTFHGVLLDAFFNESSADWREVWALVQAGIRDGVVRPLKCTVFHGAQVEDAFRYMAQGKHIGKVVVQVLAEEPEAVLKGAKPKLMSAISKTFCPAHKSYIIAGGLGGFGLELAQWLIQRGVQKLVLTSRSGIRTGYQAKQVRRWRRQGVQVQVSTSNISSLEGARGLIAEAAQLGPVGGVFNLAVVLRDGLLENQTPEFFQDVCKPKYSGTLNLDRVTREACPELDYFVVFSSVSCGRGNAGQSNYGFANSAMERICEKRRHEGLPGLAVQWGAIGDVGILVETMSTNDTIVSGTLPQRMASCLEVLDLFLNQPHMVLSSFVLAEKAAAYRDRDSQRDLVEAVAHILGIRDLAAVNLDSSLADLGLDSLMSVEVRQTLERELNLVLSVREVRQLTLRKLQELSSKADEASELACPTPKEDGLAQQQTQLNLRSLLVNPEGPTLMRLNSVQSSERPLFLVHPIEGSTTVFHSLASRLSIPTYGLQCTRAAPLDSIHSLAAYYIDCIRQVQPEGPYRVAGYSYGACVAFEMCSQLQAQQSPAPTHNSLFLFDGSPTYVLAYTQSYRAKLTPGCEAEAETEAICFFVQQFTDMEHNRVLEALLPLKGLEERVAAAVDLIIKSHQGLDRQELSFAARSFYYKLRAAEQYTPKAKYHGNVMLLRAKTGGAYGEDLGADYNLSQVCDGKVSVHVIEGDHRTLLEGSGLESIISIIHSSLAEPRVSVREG
Summary of the method: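 Read-out relies on hydrophobic ³H-palmitate product, formed from ³H-acetyl-CoA and malonyl-CoA, binding streptavidin imaging beads, measured at 610±20 nm after at least 24 h. Full-length enzyme (300 ng) in phosphate buffer pH 7.5 with DTT; eight compound concentrations, 0.01–30 μM.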

Structure (SMILES) | IC50 (A2780 ovarian cells [1]) [µM] | IC50 (A2780 ovarian cells [2]) [µM] | inhibition at 10 µM [3] [%] | IC50 [3] [µM]
Cn1ncc2cc(-c3ccc(C4=NC5(CC5)C(=O)N4CC4CCN(C(=O)C5CC5)CC4)cc3)ccc21 [compound 19, 6-{[1-(Cyclopropylcarbonyl)piperidin-4-yl]methyl}-5-[4-(1-methyl-1H-indazol-5-yl)phenyl]-4,6-diazaspiro[2.4]hept-4-en-7-one] | > 6.17 | 4.68 | – | –
Cn1ncc2cc(-c3ccc(C4=NC5(CC5)C(=O)N4C[C@@H]4CCN(C(=O)C5CC5)C4)cc3)ccc21 [compound 28, 6-{[(3R)-1-(Cyclopropylcarbonyl)pyrrolidin-3-yl]methyl}-5-[4-(1-methyl-1H-indazol-5-yl)phenyl]-4,6-diazaspiro[2.4]hept-4-en-7-one] | > 10 | 0.132 | – | –
Cn1ncc2cc(-c3ccc(C4=NC5(CCCC5)C(=O)N4C[C@@H]4CCN(C(=O)C5CC5)C4)cc3)ccc21 [compound 35, 3-{[(3R)-1-(Cyclopropylcarbonyl)pyrrolidin-3-yl]methyl}-2-[4-(1-methyl-1H-indazol-5-yl)phenyl]-1,3-diazaspiro[4.4]non-1-en-4-one] | > 10 | 0.479 | – | –
O=C(C1CC1)N1CC[C@@H](CN2C(=O)C3(CC3)N=C2c2ccc(-c3ccc4cnccc4c3)cc2)C1 [compound 47, 6-{[(3R)-1-(Cyclopropylcarbonyl)pyrrolidin-3-yl]methyl}-5-(4-isoquinolin-6-ylphenyl)-4,6-diazaspiro[2.4]hept-4-en-7-one] | > 10 | 0.00776 | – | –
O=C(C1CC1)N1CC[C@@H](CN2C(=O)C3(CC3)N=C2c2ccc(-c3ccc4occc4c3)cc2)C1 [compound 58, (R)-5-(4-(Benzofuran-5-yl)phenyl)-6-((1-(cyclopropanecarbonyl)pyrrolidin-3-yl)methyl)-4,6-diazaspiro[2.4]hept-4-en-7-one] | > 10 | 0.339 | – | –
O=C(C1CC1)N1CC[C@@H](CN2C(=O)C3(CC3)N=C2c2ccc(-c3ccc4scnc4c3)cc2)C1 [compound 71, 5-[4-(1,3-Benzothiazol-5-yl)phenyl]-6-{[(3R)-1-(cyclopropylcarbonyl)pyrrolidin-3-yl]methyl}-4,6-diazaspiro[2.4]hept-4-en-7-one] | > 10 | 0.0363 | – | –
O=C(C1CC1)N1CC[C@@H](CN2C(=O)C3(CC3)N=C2c2ccc(-c3cccc(Cl)c3)cc2)C1 [compound 112, 5-(3′-Chlorobiphenyl-4-yl)-6-{[(3R)-1-(cyclopropylcarbonyl)pyrrolidin-3-yl]methyl}-4,6-diazaspiro[2.4]hept-4-en-7-one] | > 10 | 1.02 | – | –
O=C(C1CC1)N1CC(CN2C(=O)C3(CC3)N=C2c2ccc(-c3ccc(-c4cnn(C5CCC5)c4)cc3)cc2F)C1 [compound 329, 5-(4′-(1-cyclobutyl-1H-pyrazol-4-yl)-3-fluoro-[1,1′-biphenyl]-4-yl)-6-((1-(cyclopropanecarbonyl)azetidin-3-yl)methyl)-4,6-diazaspiro[2.4]hept-4-en-7-one] | 3.09 | 0.0141 | – | –
Cc1cc(-c2ccc(-c3cnn(C4CCC4)c3)cc2)ccc1C1=NC2(CC2)C(=O)N1CC1CN(C(=O)C2CC2)C1 [compound 330, 5-(4′-(1-cyclobutyl-1H-pyrazol-4-yl)-3-methyl-[1,1′-biphenyl]-4-yl)-6-((1-(cyclopropanecarbonyl)azetidin-3-yl)methyl)4,6-diazaspiro[2.4]hept-4-en-7-one] | ~6.17 | 0.0324 | – | –
CC(C)N1CCC2(CC1)N=C(c1ccc(-c3ccc4cnccc4c3)cc1)N(CC1CN(C(=O)C3CC3)C1)C2=O [compound 951, 3-((1-(cyclopropanecarbonyl)azetidin-3-yl)methyl)-8-isopropyl-2-(4-(isoquinolin-6-yl)phenyl)-1,3,8-triazaspiro[4.5]dec-1-en-4-one] | – | – | 41 | > 10
O=C(C1CC1)N1CC(CN2C(=O)C3(CCN(C(=O)C(F)(F)F)CC3)N=C2c2ccc(-c3ccc4c(ccn4C(=O)C(F)(F)F)c3)cc2)C1 [compound 952, 3-((1-(cyclopropanecarbonyl)azetidin-3-yl)methyl)-8-(2,2,2-trifluoroacetyl)-2-(4-(1-(2,2,2-trifluoroacetyl)-1H-indol-5-yl)phenyl)-1,3,8-triazaspiro[4.5]dec-1-en-4-one] | – | – | 45 | > 10
COC(=O)N1CC[C@@H](CN2C(=O)C3(CCOCC3)N=C2c2ccc(-c3ccc4c(cnn4C)c3)cc2)C1 [compound 953, (S)-methyl 3-((2-(4-(1-methyl-1H-indazol-5-yl)phenyl)-4-oxo-8-oxa-1,3-diazaspiro[4.5]dec-1-en-3-yl)methyl)pyrrolidine-1-carboxylate] | – | – | 35 | > 10
COC(=O)N1CC[C@@H](CN2C(=O)C3(CCOC3)N=C2c2ccc(-c3ccc4occc4c3)cc2)C1 (stereo partly drawn) [compound 954, (3S)-methyl 3-((2-(4-(benzofuran-5-yl)phenyl)-4-oxo-7-oxa-1,3-diazaspiro[4.4]non-1-en-3-yl)methyl)pyrrolidine-1-carboxylate] | – | – | 27 | > 10
Cn1ncc2cc(-c3ccc(C4=NC5(CCOC5)C(=O)N4C[C@@H]4CCN(C(=O)C(F)(F)F)C4)cc3)ccc21 (stereo partly drawn) [compound 955, 2-(4-(1-methyl-1H-indazol-5-yl)phenyl)-3-(((R)-1-(2,2,2-trifluoroacetyl)pyrrolidin-3-yl)methyl)-7-oxa-1,3-diazaspiro[4.4]non-1-en-4-one] | – | – | 34 | > 10
COC(=O)N1CC2(C1)N=C(c1ccc(-c3ccc4occc4c3)cc1)N(C[C@@H]1CCN(S(C)(=O)=O)C1)C2=O [compound 956, (S)-methyl 6-(4-(benzofuran-5-yl)phenyl)-7-((1-(methylsulfonyl)pyrrolidin-3-yl)methyl)-8-oxo-2,5,7-triazaspiro[3.4]oct-5-ene-2-carboxylate] | – | – | 8 | > 10
O=C(c1nccs1)N1CC[C@@H](CN2C(=O)C3(CCOCC3)N=C2c2ccc(-c3ccc4occc4c3)cc2)C1 [compound 958, (R)-2-(4-(benzofuran-5-yl)phenyl)-3-((1-(thiazole-2-carbonyl)pyrrolidin-3-yl)methyl)-8-oxa-1,3-diazaspiro[4.5]dec-1-en-4-one] | – | – | -6 | > 10
Cn1ncc2cc(-c3ccc(C4=NC5(CCOCC5)C(=O)N4C[C@@H]4CCN(C(=O)c5nccs5)C4)cc3)ccc21 [compound 959, (R)-2-(4-(1-methyl-1H-indazol-5-yl)phenyl)-3-((1-(thiazole-2-carbonyl)pyrrolidin-3-yl)methyl)-8-oxa-1,3-diazaspiro[4.5]dec-1-en-4-one] | – | – | -7 | > 10
CS(=O)(=O)N1CC[C@@H](CN2C(=O)C3(CCOCC3)N=C2c2ccc(-c3ccc4cccnc4c3)cc2)C1 [compound 960] | – | – | -2 | > 10
O=C(N1CC(CN2C(=O)C3(CCOCC3)N=C2c2ccc(-c3ccc4occc4c3)cc2)C1)C(F)(F)F [compound 961, 2-(4-(benzofuran-5-yl)phenyl)-3-((1-(2,2,2-trifluoroacetyl)azetidin-3-yl)methyl)-8-oxa-1,3-diazaspiro[4.5]dec-1-en-4-one] | – | – | 7 | > 10
COC(=O)N1CC2(C1)N=C(c1ccc(-c3ccc4cccnc4c3)cc1)N(C[C@@H]1CCN(C(=O)c3nccs3)C1)C2=O [compound 962, (R)-methyl 8-oxo-6-(4-(quinolin-7-yl)phenyl)-7-((1-(thiazole-2-carbonyl)pyrrolidin-3-yl)methyl)-2,5,7-triazaspiro[3.4]oct-5-ene-2-carboxylate] | – | – | 43 | > 10
Cn1ncc2cc(-c3ccc(C4=NC5(CCN(C(=O)C(F)(F)F)CC5)C(=O)N4CC4CN(C(=O)C5CC5)C4)cc3)ccc21 [compound 964, 3-((1-(cyclopropanecarbonyl)azetidin-3-yl)methyl)-2-(4-(1-methyl-1H-indazol-5-yl)phenyl)-8-(2,2,2,-trifluoroacetyl)-1,3,8-triazaspiro[4.5]dec-1-en-4-one] | – | – | 41 | ~11
